The values below come from patent US8158621B2, “Methods of treating or preventing autoimmune diseases with 2,4-pyrimidinediamine compounds” (Rigel Pharmaceuticals, Inc., priority 2002, dated 2012).

The test system of assay [1] is cultured human mast cells (CHMC). Kind of assay: CHMC low cell density IgE activation: tryptase assay. The assay is classed as cell-based. In a few lines: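 Cells pelleted, taken up in warm MT, plated at 1000-1500/well, held 1 hr 37° C. Anti-IgE added, 30 min 37° C. Plates spun; supernatant mixed with tryptase substrate, 30 min RT.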
Assay [2] deals with basophil cells (human peripheral blood). Nature of the assay: Basophil ionomycin activation: histamine release assay. The assay is classed as cell-based. In a few lines:
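Dextran-sedimented leukocytes from peripheral blood of dust-mite-allergic human donors were incubated with compound (8 concentrations, 0.5% DMSO, triplicate) and then stimulated with 2 μM ionomycin stock (20 μl added) for 30 min at 37° C. Histamine released into the supernatant was measured by ELISA.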

The subject of assay [3] is bone marrow derived mast cells (BMMC). Nature of the assay: BMMC high cell density IgE activation: TNFalpha. The assay is classed as cell-based, mouse. As to conditions: read-out: BMMC anti-IgE TNF-alpha. In a few lines: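 Mediator release from sensitized BMMC: after 1 h compound exposure at 37 °C (0.5% DMSO), cells challenged with DNP-BSA for 1 h and early supernatant collected. Cells then recultured 4-5 h in conditioned medium with compound; cytokines IL-6 and TNFα quantified by ELISA.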

The test system of assay [4] is FcγRI-mediated degranulation. Nature of the assay: FcγRI-mediated degranulation (anti-human IgG Fab activation). As to conditions: cells not primed with IgE, activated with rabbit anti-human IgG Fab fragment. The assay is classed as cell-based.
In assay [5] the test system is Primary T-cells. Kind of assay: Primary T-cell cytokine production (αCD3/αCD28): IFNg. The assay is classed as cell-based, human. The conditions noted are these: read-out: 1° T-Cell IFNg IC50. As for the experimental part: (§1) 2E8-4E8 PBMC or proliferating T cells grown in rIL-2 from healthy human donors were suspended in PBS were spun down (1500 rpm, 8-10 minutes) and resuspended in 100 ml RPMI Complete media (1% Pen-Strep, 1% L-Glutamine, 10 mM HEPES). The cells were plated in T175 flasks (37° C., 5% CO2) and monocytes were allowed to adhere for 2-3 hours. After monocyte attachment, non-adherent cells were harvested, counted by hemocytometer, washed several times with PBS then resuspended in Yssels Complete Media (Modified IMDM Media with 1% Human AB Serum, 1% Pen-Strep, 1% L-Glutamine, 10 mM HEPES) at […]. 90 uL of the cell dilution were then added to compounds diluted to 2× in Yssel's media and incubated for 30 minutes at 37° C. (5% CO2). After this preincubation step the compound/cell mixture was transferred to stimulation plates, as described below.
(§2) Stimulation plates were prepared by coating 96 well plates with 5 μg/ml αCD3 (BD PharMingen, Catalog #555336)+10 μg/ml αCD28 (Beckman Coulter, Catalog #IM1376) in PBS (no Ca^2+/Mg^2+) at 37° C. (5% CO2) for at 3-5 hours. After incubation with the stimulation antibodies, the cocktail was removed and the plates washed 3 times with PBS prior to addition of the primary T cell/compound mixture.
(§3) The compound/cell mixture was transferred to the stimulation plates and incubated for 18 hr at 37° C. (5% CO2). After the cell stimulation, ˜150 μl supernatant were transferred from each well into 96-well filter plates (Coming PVDF Filter Plates) spun down (2000 rpm, 2-3 minutes) and either used immediately for ELISA or LUMINEX measurements or frozen down at −80° C. for future use.
(§4) Luminex immunoassay multiplexing for TNF, IL-2, GMSCF, IL-4 and IFNg was performed essentially as described by the manufacturer (Upstate Biotechnology). Essentially 50 uL of sample was diluted into 50 uL assay diluent and 50 uL incubation buffer, then incubated with 100 uL of the diluted detection antibody for 1 hr at RT in the dark. The filter plate was washed 2× in Wash Buffer, then incubated with 100 uL of the diluted secondary reagent (SAV-RPE) for 30 min at RT in the dark. Finally the plates were washed 3 times and bead identification and RPE fluorescent measured by the Luminex instrument.
(§5) Varied concentrations of compound were compared to solvent only to determine the inhibition of T-cell activation IC50 of each compound.

Assay [6] relates to cultured human mast cells (CHMC). Kind of assay: CHMC low cell density ionomycin activation: tryptase assay. The assay is classed as cell-based.
Assay [7] deals with Primary T-cells. Nature of the assay: Primary T-cell cytokine production (αCD3/αCD28): IL-4. The assay is classed as cell-based, human. As to conditions: read-out: 1° T-Cell IL4 IC50. The method, then:
as §1, §2, §3, §4, §5

Where [8] appears, read: Low Density CHMC, anti-IgE activation, tryptase release, read-out: CHMC anti-IgE Tryptase IC50.
Where [9] appears, read: basophils, ionomycin activation, histamine release, read-out: Basophils Ionomycin Histamine IC50.
Where [10] appears, read: low cell density, read-out: CHMC anti-IgE Tryptase.
[11] abbreviates: low cell density, read-out: CHMC Ionomycin Tryptase.
Where [12] appears, read: Low Density CHMC, ionomycin activation, tryptase release, read-out: CHMC Ionomycin Tryptase IC50.

Where two headings read alike, the source gives them in different places.

`COc1ccc(Nc2ncc(F)c(Nc3cccc(O)c3)n2)cc1OC` [Compound R926113]: the IC50 in assay [1] (setting [8]) was 413 nM; in assay [2] (setting [9]), greater than 10000 nM.

In the case of `Oc1cccc(Nc2ncc(F)c(Nc3cccc(O)c3)n2)c1` [Compound R921218], the IC50 in assay [2] (setting [9]) is greater than 10000 nM; in assay [3] (High Density), 274 nM. The “inhibition of FcγRI-mediated degranulation” value (“inhibition” below) in assay [4] is recorded as “inhibit FcγRI-mediated degranulation”.

For `CC1(C)Oc2ccc(Nc3nc(Nc4cc(Cl)cc(Cl)c4)ncc3F)cc2NC1=O` [Compound R927064], the IC50 with Primary T-cells [5] was greater than 10000 nM; in assay [1] (setting [10]) it was 212 nM; in assay [6] (setting [11]) it was 7240 nM; in assay [3] (high cell density) it was 1920 nM.

For `COc1ccc(Nc2ncc(F)c(Nc3ccc(OC)c(OC)c3)n2)cc1OC` [Compound R926110], the IC50 was 1070 nM in assay [1] (setting [8]), greater than 10000 nM in assay [2] (setting [9]) and greater than 10000 nM in assay [6] (setting [12]).

As for `COc1cc(Nc2ncc(F)c(Nc3ccc4c(c3)NC(=O)C(C)(C)O4)n2)cc(OC)c1` [Compound R927050], the IC50 with Primary T-cells [5] came to 916 nM; in assay [1] (setting [10]), 73 nM; in assay [6] (setting [11]), 3290 nM; in assay [3] (high cell density) it was 19 nM; in the assay with Primary T-cells [7], 275 nM. Besides, the “inhibition” value in assay [4] is “inhibit FcγRI-mediated degranulation”.

In the case of `CNC(=O)COc1cccc(Nc2ncc(F)c(Nc3ccc4c(c3)NC(=O)C(F)(F)O4)n2)c1` [Compound R921303], the IC50 is 1280 nM with Primary T-cells [5] and 366 nM with Primary T-cells [7]. Besides, the “inhibition” value in assay [4] was “inhibit FcγRI-mediated degranulation”.

As to `CNC(=O)COc1cccc(Nc2ncc(F)c(Nc3ccc(OC(F)(F)F)c(Cl)c3)n2)c1` [Compound R920410], the IC50 with Primary T-cells [5] worked out at 4310 nM; in the assay on Primary T-cells [7], 546 nM. In addition, the “inhibition” value in assay [4] is recorded as “inhibit FcγRI-mediated degranulation”.

As to `Nc1cccc(Nc2ncc(F)c(Nc3cccc(N)c3)n2)c1` [Compound R921302], the results for the IC50 (with Primary T-cells [5]; in assay [2] (read-out: Basophils Ionomycin Histamine); in the assay on Primary T-cells [7]) were 3900 nM, greater than 10000 nM and 245 nM, respectively. The “inhibition” value in assay [4] is “inhibit FcγRI-mediated degranulation”.

Consider `CC1(C)Oc2ccc(Nc3nc(Nc4ccc5cn[nH]c5c4)ncc3F)cc2NC1=O` [Compound R940363], for which the IC50 in assay [1] (setting [10]) is 48 nM; in assay [6] (setting [11]) it was greater than 10000 nM.

In the case of `CNC(=O)COc1cccc(Nc2ncc(F)c(Nc3cccc(O)c3)n2)c1` [Compound R926508], the IC50 in assay [2] (setting [9]) is greater than 10000 nM.

For the compound `CC1(C)Oc2ccc(Nc3ncc(F)c(Nc4ccc5c(c4)NC(=O)C(C)(C)O5)n3)cc2NC1=O` [Compound R940350], the IC50 in the assay on Primary T-cells [5] amounted to 2470 nM; in the assay with Primary T-cells [7] it was 501 nM. Further, in assay [4], the “inhibition” value is recorded as “inhibit FcγRI-mediated degranulation”.

On to `OCCCn1ncc2cc(Nc3ncc(F)c(Nc4ccc(Cl)c(Cl)c4)n3)ccc21` [Compound R935391], for which the IC50 in assay [1] (setting [10]) is 212 nM; in assay [6] (setting [11]) it was greater than 10000 nM; in assay [3] (high cell density) it was 190 nM.

Turning to `CNC(=O)COc1cccc(Nc2ncc(F)c(Nc3ccc4c(c3)NCCO4)n2)c1` [Compound R921219], the IC50 in assay [2] (setting [9]) was greater than 10000 nM.

`CNC(=O)COc1cccc(Nc2ncc(F)c(Nc3ccc4c(n3)NC(=O)C(C)(C)O4)n2)c1` [Compound R940347]: the results for the IC50 in the assay with Primary T-cells [5] and in the assay with Primary T-cells [7] were 1670 nM and 212 nM, respectively. In addition, the “inhibition” value in assay [4] is “inhibit FcγRI-mediated degranulation”.

Regarding `CNC(=O)COc1cccc(Nc2ncc(F)c(Nc3ccc4c(n3)NC(=O)CO4)n2)c1` [Compound R921304], the IC50 was 2890 nM in the assay with Primary T-cells [5] and 366 nM in the assay with Primary T-cells [7].

On to `Fc1cnc(Nc2ccc3c(c2)OCCO3)nc1Nc1ccc2c(c1)OCCO2` [Compound R926109], for which the IC50 was 538 nM in assay [1] (setting [8]), greater than 10000 nM in assay [2] (setting [9]) and 5500 nM in assay [6] (setting [12]).
